IC50 data for 31 compounds are collected here from patent US12252488B2 (Nimbus Saturn, Inc., priority 2021, dated 2025).

The target in this assay is T1, HPK1 (Homo sapiens, UniProt Q92918).
T1 construct: purchased Invitrogen
T1 sequence (Q92918 whole entry): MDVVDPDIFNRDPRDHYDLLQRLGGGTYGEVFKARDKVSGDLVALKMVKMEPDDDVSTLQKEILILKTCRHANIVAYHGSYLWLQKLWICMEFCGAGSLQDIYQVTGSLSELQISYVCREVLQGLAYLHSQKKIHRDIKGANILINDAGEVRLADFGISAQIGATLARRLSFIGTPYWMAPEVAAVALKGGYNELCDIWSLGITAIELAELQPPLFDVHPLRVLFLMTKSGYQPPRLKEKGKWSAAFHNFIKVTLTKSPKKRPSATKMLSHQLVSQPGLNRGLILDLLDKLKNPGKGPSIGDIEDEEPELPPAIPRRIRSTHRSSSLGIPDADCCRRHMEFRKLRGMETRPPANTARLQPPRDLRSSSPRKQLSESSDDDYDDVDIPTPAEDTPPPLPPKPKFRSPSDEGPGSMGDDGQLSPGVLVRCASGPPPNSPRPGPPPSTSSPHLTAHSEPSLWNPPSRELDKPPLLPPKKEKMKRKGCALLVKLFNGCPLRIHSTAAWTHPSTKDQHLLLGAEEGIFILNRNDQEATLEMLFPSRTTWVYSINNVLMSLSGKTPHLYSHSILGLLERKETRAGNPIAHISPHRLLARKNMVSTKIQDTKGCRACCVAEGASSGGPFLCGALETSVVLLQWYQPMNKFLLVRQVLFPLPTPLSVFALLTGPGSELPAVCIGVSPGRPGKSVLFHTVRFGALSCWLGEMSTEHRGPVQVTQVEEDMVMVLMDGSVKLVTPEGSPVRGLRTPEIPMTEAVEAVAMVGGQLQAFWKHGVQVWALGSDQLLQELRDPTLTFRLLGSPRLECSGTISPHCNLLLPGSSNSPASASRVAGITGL
Kind of assay: HPK1 biochemical enzyme assay (microfluidic mobility shift assay). The conditions noted are these: 1000 uM (1 mM) ATP; Caliper mobility shift; 1.5 nM HPK1; 30 min preincubation; read-out: HPK1 1000UMATP caliper IC50. The procedure, abridged:
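Microfluidic mobility-shift readout with 1.5 nM HPK1 in pH 7.4 buffer; compounds (ten-point curves, top 3 μM final) preincubated 30 min with enzyme/substrate. Reaction started with 1 mM ATP and 1 μM substrate plus 5 mM MgCl2, run 60 min at RT. IC50 values binned into activity classes.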
With `O=C(c1ccc(F)c(-c2cc(Nc3ccc(N4CCC(O)CC4)cn3)c3c(=O)[nH]ccc3n2)c1)N1CCOCC1` [I-80, 2-[2-fluoro-5-(morpholine-4-carbonyl)phenyl]-4-[[5-(4-hydroxy-1-piperidyl)-2-pyridyl]amino]-6H-1,6-naphthyridin-5-one], the IC50 was 100 to 1000 nM.
Consider `O=c1[nH]cc(Br)c2nc(-c3c(F)cccc3F)cc(Nc3ccc(N4CCC(O)CC4)cn3)c12` [I-5, 8-bromo-2-(2,6-difluorophenyl)-4-[[5-(4-hydroxy-1-piperidyl)-2-pyridyl]amino]-6H-1,6-naphthyridin-5-one], for which the IC50 was 100 to 1000 nM.
The figure for `O=C(Nc1ccc(-c2cc(Nc3ccc(C4CC4)cn3)c3c(=O)[nH]ccc3n2)c(F)c1)C1CCCCC1` [I-212, N-[4-[4-[(5-cyclopropyl-2-pyridyl)amino]-5-oxo-6H-1,6-naphthyridin-2-yl]-3-fluoro-phenyl] cyclohexane-carboxamide] is 100 to 1000 nM; for `O=c1[nH]ccc2nc(-c3cccc(CN4CCCCC4)c3F)cc(Nc3ccc(N4CCC(O)CC4)cn3)c12` [I-183, 2-[2-fluoro-3-(1-piperidyl-methyl)phenyl]-4-[[5-(4-hydroxy-1-piperidyl)-2-pyridyl]amino]-6H-1,6-naphthyridin-5-one] it is at most 100 nM; for `Cc1nc2cc(-c3cc(Nc4ccc(N5CCC(O)CC5)cn4)c4c(=O)[nH]ccc4n3)c(F)cc2o1` [I-182, 2-(6-fluoro-2-methyl-1,3-benzoxazol-5-yl)-4-[[5-(4-hydroxy-1-piperidyl)-2-pyridyl]amino]-6H-1,6-naphthyridin-5-one] it is over 1000 nM.
With `Cc1c[nH]c(=O)c2c(Nc3ccc(N4CCC(O)CC4)cn3)ccnc12` [I-90, 4-[[5-(4-hydroxy-1-piperidyl)-2-pyridyl]amino]-8-methyl-6H-1,6-naphthyridin-5-one] the figure was 100 to 1000 nM; with `CC(C)(O)c1ccc(-c2cc(Nc3ccc(N4CCC(O)CC4)cn3)c3c(=O)[nH]ccc3n2)c(F)c1` [I-69, 2-[2-fluoro-4-(1-hydroxy-1-methyl-ethyl)phenyl]-4-[[5-(4-hydroxy-1-piperidyl)-2-pyridyl]amino]-6H-1,6-naphthyridin-5-one], 100 to 1000 nM; with `Cc1ccc(F)c(-c2cc(Nc3ccc(N4CCC(O)CC4)cn3)c3c(=O)[nH]ccc3n2)c1` [I-4I], over 1000 nM.
The figure for `COc1c(C(=O)N2CCCCC2)ccc(-c2cc(Nc3ccc(N4CCC(O)CC4)cn3)c3c(=O)[nH]ccc3n2)c1F` [I-166, 2-[2-fluoro-3-methoxy-4-(piperidine-1-carbonyl)phenyl]-4-[[5-(4-hydroxy-1-piperidyl)-2-pyridyl]amino]-6H-1,6-naphthyridin-5-one] is at most 100 nM; for `COc1cc(-c2cc(Nc3ccc(N4CCCCC4)cn3)c3c(=O)[nH]ccc3n2)c(F)cc1C(=O)N1CCCCC1` [I-232, 2-[2-fluoro-5-methoxy-4-(piperidine-1-carbonyl)phenyl]-4-[[5-(1-piperidyl)-2-pyridyl]amino]-6H-1,6-naphthyridin-5-one] it is at most 100 nM; for `CS(=O)(=O)Cc1ccc(Nc2cc(-c3c(F)cccc3F)nc3cc[nH]c(=O)c23)nc1` [I-30, 2-(2,6-difluoro-phenyl)-4-[[5-(methyl-sulfonyl-methyl)-2-pyridyl]amino]-6H-1,6-naphthyridin-5-one] it is 100 to 1000 nM.
With `COCCOC1CN(c2ccc(Nc3cc(-c4cc(OC)c(C(=O)N5CCCCC5)cc4F)nc4cc[nH]c(=O)c34)nc2)C1` [I-188, 2-[2-fluoro-5-methoxy-4-(piperidine-1-carbonyl)phenyl]-4-[[5-[3-(2-methoxy-ethoxy)azetidin-1-yl]-2-pyridyl]amino]-6H-1,6-naphthyridin-5-one], the IC50 was at most 100 nM.
With `Cc1n[nH]c2cc(F)c(-c3cc(Nc4ccc(N5CCNCC5)cn4)c4c(=O)[nH]ccc4n3)cc12` [I-168, 2-(6-fluoro-3-methyl-1H-indazol-5-yl)-4-[[5-piperazin-1-yl-2-pyridyl)amino]-6H-1,6-naphthyridin-5-one] the figure was at most 100 nM.
Consider `COc1cc(-c2cc(Nc3ccc(N4CCC(F)(F)CC4)cn3)c3c(=O)[nH]ccc3n2)c(F)cc1C(=O)N1CCCCC1` [I-169, 4-[[5-(4,4-difluoro-1-piperidyl)-2-pyridyl]amino]-2-[2-fluoro-5-methoxy-4-(piperidine-1-carbonyl)phenyl]-6H-1,6-naphthyridin-5-one], for which the IC50 was 100 to 1000 nM.
Regarding `CN(C(=O)C1(C)CC1)c1ccc(-c2cc(Nc3ccc(N4CCC(O)CC4)cn3)c3c(=O)[nH]ccc3n2)c(F)c1` [I-214, N-[3-fluoro-4-[4-[[5-(4-hydroxy-1-piperidyl)-2-pyridyl]amino]-5-oxo-6H-1,6-naphthyridin-2-yl]phenyl]-N,1-dimethyl-cyclopropane-carboxamide], the IC50 fell in the range of 100 to 1000 nM.
With `O=C(Nc1ccc(-c2cc(Nc3ccc(N4C[C@H]5CC[C@@H](C4)O5)cn3)c3c(=O)[nH]ccc3n2)c(F)c1)C1CCCCC1` [I-173, N-[3-fluoro-4-[4-[[5-[(1R,5S)-8-oxa-3-azabicyclo [3.2.1]octan-3-yl]-2-pyridyl]amino]-5-oxo-6H-1,6-naphthyridin-2-yl]phenyl]-cyclohexane-carboxamide], the half-maximal inhibitory concentration (IC50) fell in the range of 100 to 1000 nM.
For the compound `O=c1[nH]ccc2nc(-c3ccc4c(c3F)CCC4O)cc(Nc3ccc(N4CCC(O)CC4)cn3)c12` (stereo not shown) [I-203, 2-(4-fluoro-1-hydroxy-indan-5-yl)-4-[[5-(4-hydroxy-1-piperidyl)-2-pyridyl]amino]-6H-1,6-naphthyridin-5-one], the IC50 was at most 100 nM.
On to `COc1cc(-c2cc(Nc3ccc(C(=O)N4CCCC4)cc3)c3c(=O)[nH]ccc3n2)c(F)cc1C(=O)N1CCCCC1` [I-165, 2-[2-fluoro-5-methoxy-4-(piperidine-1-carbonyl)phenyl]-4-[4-(pyrrolidine-1-carbonyl)amino]-6H-1,6-naphthyridin-5-one], for which the IC50 lay within 100 to 1000 nM.
For `O=c1[nH]ccc2nc(-c3c(F)cccc3F)cc(Nc3ccc(S(=O)(=O)N4CCCCC4)cn3)c12` [I-24, 2-(2,6-difluoro-phenyl)-4-[[5-(1-piperidyl-sulfonyl)-2-pyridyl]amino]-6H-1,6-naphthyridin-5-one], the IC50 fell in the range of 100 to 1000 nM.
The figure for `CC(C)c1cc(Nc2ccc(N3CCNCC3)cn2)c2c(=O)[nH]ccc2n1` [I-21, 2-isopropyl-4-[(5-piperazin-1-yl-2-pyridyl)amino]-6H-1,6-naphthyridin-5-one] is 100 to 1000 nM; for `Cc1c[nH]c(=O)c2c(Nc3ccc(N4CCC(O)CC4)cn3)cc(-c3ccc(NC(=O)C4CCCCC4)cc3F)nc12` [I-158, N-[3-fluoro-4-[4-[[5-(4-hydroxy-1-piperidyl)-2-pyridyl]amino]-8-methyl-5-oxo-6H-1,6-naphthyridin-2-yl]phenyl] cyclohexane carboxamide] it is at most 100 nM.
With `O=c1[nH]ccc2nc(-c3ccccc3F)cc(Nc3ccc(N4CCC(O)CC4)cn3)c12` [I-64, 2-(2-fluoro-phenyl)-4-[[5-(4-hydroxy-1-piperidyl)-2-pyridyl]amino]-6H-1,6-naphthyridin-5-one], the IC50 is 100 to 1000 nM.
With `O=c1[nH]ccc2nc(-c3cc(C4CCC4)ccc3F)cc(Nc3ccc(N4CCC(O)CC4)cn3)c12` [I-97, 2-(5-cyclobutyl-2-fluoro-phenyl)-4-[[5-(4-hydroxy-1-piperidyl)-2-pyridyl]amino]-6H-naphthyridin-5-one] the figure was 100 to 1000 nM; with `Cc1cc(F)c(-c2cc(Nc3ccc(N4CCC(O)CC4)cn3)c3c(=O)[nH]ccc3n2)cc1C` [I-86, 2-(2-fluoro-4,5-dimethyl-phenyl)-4-[[5-(4-hydroxy-1-piperidyl)-2-pyridyl]amino]-6H-1,6-naphthyridin-5-one], 100 to 1000 nM.
As for `CCC1(C(=O)Nc2ccc(-c3cc(Nc4ccc(N5CCC(O)CC5)cn4)c4c(=O)[nH]ccc4n3)c(F)c2)CC1` [I-223, 1-ethyl-N-[3-fluoro-4-[4-[[5-(4-hydroxy-1-piperidyl)-2-pyridyl]amino]-5-oxo-6H-1,6-naphthyridin-2-yl]phenyl] cyclopropane-carboxamide], the IC50 is at most 100 nM.
The figure for `O=c1[nH]ccc2nc(-c3ccc(OCc4ccncc4)cc3F)cc(Nc3cc(C4CCOC4)n[nH]3)c12` (stereo not shown) [I-257, 2-[2-fluoro-4-(4-pyridyl-methoxy)phenyl]-4-[(3-THF-3-yl-1H-pyrazol-5-yl)amino]-6H-1,6-naphthyridin-5-one] is over 1000 nM.
Regarding `Cc1c[nH]nc1-c1cc(Nc2ccc(N3CCC(O)CC3)cn2)c2c(=O)[nH]ccc2n1` [I-283, 4-[[5-(4-hydroxy-1-piperidyl)-2-pyridyl]amino]-2-(4-methyl-1H-pyrazol-3-yl)-6H-1,6-naphthyridin-5-one], the IC50 was at most 100 nM.
On to `COc1cc(-c2cc(Nc3ccc(N4CCC(O)CC4)cn3)c3c(=O)[nH]ccc3n2)ccc1C(=O)N1CCCCC1` [I-195, 4-[[5-(4-hydroxy-1-piperidyl)-2-pyridyl]amino]-2-[3-methoxy-4-(piperidine-1-carbonyl)phenyl]-6H-1,6-naphthyridin-5-one], for which the IC50 was over 1000 nM.
With `CC(=O)N1CCC(c2cc(Nc3ccc(N4CCC(O)CC4)cn3)c3c(=O)[nH]ccc3n2)CC1` [I-63, 2-(1-acetyl-4-piperidyl)-4-[[5-(4-hydroxy-1-piperidyl)-2-pyridyl]amino]-6H-1,6-naphthyridin-5-one] the figure was 100 to 1000 nM.
With `COc1cccc(-c2cc(Nc3ccc(N4CCC(O)CC4)cn3)c3c(=O)[nH]ccc3n2)c1F` [I-65, 2-(2-fluoro-3-methoxy-phenyl)-4-[[5-(4-hydroxy-1-piperidyl)-2-pyridyl]amino]-6H-1,6-naphthyridin-5-one] the figure was 100 to 1000 nM; with `CC(=O)Nc1ccc(F)c(-c2cc(Nc3ccc(N4CCC(O)CC4)cn3)c3c(=O)[nH]ccc3n2)c1` [I-76, N-[4-fluoro-3-[4-[[5-(4-hydroxy-1-piperidyl)-2-pyridyl]amino]-5-oxo-6H-1,6-naphthyridin-2-yl]phenyl] acetamide], 100 to 1000 nM.
